Source: paper PMC8815882, “Screening the pandemic response box identified benzimidazole carbamates, Olorofim and ravuconazole as promising drug candidates for the treatment of eumycetoma” (PLoS Neglected Tropical Diseases, 2022)
Like-named read-outs stand apart in the source and are kept apart here.

Tested on: M. mycetomatis genome strain MM55
Test: CLSI M38-A2 based in vitro susceptibility screening (XTT or resazurin), growth at fixed concentration
Type: cell-based, Madurella mycetomatis
Settings: Madurella mycetomatis; for Percent fungal survival at 100 µM: read-out: Percentage survival at 100um, 100 uM A (second replicate column)
[1] = mean of three replicates, read-out: Percentage survival at 25um, 25 uM mean
[2] = replicate A, read-out: Percentage survival at 25um, 25 um A
[3] = replicate B, read-out: Percentage survival at 25um, 25 uM B
[4] = replicate C, read-out: Percentage survival at 25um, 25 uM C
[5] = first replicate column, read-out: Percentage survival at 100um, 100 uM A
[6] = mean of three replicates, read-out: Percentage survival at 100um, 100 uM mean
[7] = second replicate column, read-out: Percentage survival at 100um, 100 uM A
[8] = third replicate column, read-out: Percentage survival at 100um, 100 uM A
[9] = mean of three, M. mycetomatis MM55, read-out: Percentage survival at 25um, 25 uM mean
[10] = replicate A, M. mycetomatis MM55, read-out: Percentage survival at 25um, 25 um A
[11] = replicate B, M. mycetomatis MM55, read-out: Percentage survival at 25um, 25 uM B
[12] = replicate C, M. mycetomatis MM55, read-out: Percentage survival at 25um, 25 uM C
[13] = mean of three, M. mycetomatis MM55, read-out: Percentage survival at 100um, 100 uM mean
[14] = replicate 1, M. mycetomatis MM55, read-out: Percentage survival at 100um, 100 uM A (first replicate column)
[15] = replicate 2, M. mycetomatis MM55
[16] = replicate 3, M. mycetomatis MM55, read-out: Percentage survival at 100um, 100 uM A (third replicate column)
[17] = mean, read-out: Percentage survival at 25um, 25 uM mean
[18] = mean, read-out: Percentage survival at 100um, 100 uM mean
[19] = replicate (first column), read-out: Percentage survival at 100um, 100 uM A
[20] = replicate (second column), read-out: Percentage survival at 100um, 100 uM A
[21] = replicate (third column), read-out: Percentage survival at 100um, 100 uM A

Row | Compound | activity at 25 µM [1] [%] | activity at 25 µM [2] [%] | activity at 25 µM [3] [%] | activity at 25 µM [4] [%] | activity at 100 µM [6] [%] | activity at 25 µM [9] [%] | activity at 25 µM [10] [%] | activity at 25 µM [11] [%] | activity at 25 µM [12] [%] | activity at 100 µM [13] [%] | activity at 100 µM [14] [%] | Percent fungal survival at 100 µM [15] [%] | activity at 100 µM [16] [%] | other results
1 | NC(=O)c1ccc(I)c([N+](=O)[O-])c1 [MMV1581035] | 97.6 | 97.2 | 103 | 92.5 | 90.1 |  |  |  |  |  |  |  |  | activity at 100 µM [5]: 89.6%; activity at 100 µM [7]: 93.1%; activity at 100 µM [8]: 87.5%
2 | COc1ccc(C[C@@H](C)[C@@H](C)Cc2ccc(OC)c(OC)c2)cc1OC [MMV1581036] |  |  |  |  |  |  |  |  |  |  |  |  |  | activity at 25 µM (mean of replicates, MM55, read-out: Percentage survival at 25um, 25 uM mean): 68.5%; activity at 25 µM (replicate A, MM55, read-out: Percentage survival at 25um, 25 um A): 72.1%; activity at 25 µM (replicate B, MM55, read-out: Percentage survival at 25um, 25 uM B): 71.5%; activity at 25 µM (replicate C, MM55, read-out: Percentage survival at 25um, 25 uM C): 61.9%; activity at 100 µM (mean of replicates, MM55, read-out: Percentage survival at 100um, 100 uM mean): 52.6%; activity at 100 µM (replicate 1, MM55, read-out: Percentage survival at 100um, 100 uM A): 50.8%; activity at 100 µM (replicate 2, MM55, read-out: Percentage survival at 100um, 100 uM A): 58.7%; activity at 100 µM (replicate 3, MM55, read-out: Percentage survival at 100um, 100 uM A): 48.3%
3 | O=C1[C@H](CC[C@H](O)c2ccc(F)cc2)[C@@H](c2ccc(O)cc2)N1c1ccc(F)cc1 [MMV1581377] | 91.9 | 82.7 | 93.7 | 99.2 | 43.8 |  |  |  |  |  |  |  |  | activity at 100 µM [5]: -3.71%; activity at 100 µM [7]: 57.6%; activity at 100 µM [8]: 77.4%
4 | Nc1ccc2oc(=O)ccc2c1I [MMV1581378] | 80.5 | 75.8 | 85.5 | 80.1 | 64.9 |  |  |  |  |  |  |  |  | activity at 100 µM [5]: 75.4%; activity at 100 µM [7]: 66.2%; activity at 100 µM [8]: 53.2%
5 | O=c1cc(Nc2ccc3ccccc3c2)[nH]c(=O)[nH]1 [MMV1581546] |  |  |  |  |  | 84.3 | 93.6 | 85 | 74.5 | 86 | 78.9 | 98.5 | 80.4 | 
6 | CC(C)(C)OC(=O)NCc1ccc(C(=O)N[C@H]2CCOC2=O)cc1 [MMV1581547] |  |  |  |  |  | 87.5 | 95.2 | 90.1 | 77.3 | 113 | 94.9 | 156 | 89.2 | 
7 | CC(C)(C)c1cccc(-c2nc3cc(C(=N)N)ccc3[nH]2)c1O [MMV1581548] |  | 56.8 | 2.31 | 2.96 |  |  |  |  |  |  |  |  |  | activity at 25 µM [17]: 20.7%; activity at 100 µM [18]: 3.06%; activity at 100 µM [19]: -0.0188%; activity at 100 µM [20]: 5.51%; activity at 100 µM [21]: 3.71%
8 | CCc1nc(N)nc(N)c1C#CCc1ccccc1 [MMV1581549] | 92.3 | 59.8 | 78.6 | 138 | 2.68 |  |  |  |  |  |  |  |  | activity at 100 µM (replicate 1, read-out: Percentage survival at 100um, 100 uM A (first replicate column)): 1.33%; Percent fungal survival at 100 µM (replicate 2): 1.24%; activity at 100 µM (replicate 3, read-out: Percentage survival at 100um, 100 uM A (third replicate column)): 5.46%
9 | OC1O[C@H](CSc2ccc(F)cc2)[C@@H](O)[C@H]1O (stereo partly shown) [MMV1581550] |  |  |  |  |  | 91 | 97.5 | 90.1 | 85.4 | 85.6 | 80.9 | 92.1 | 83.9 | 
10 | c1ccc(-c2nnc3c4ccccc4c(N4CCNCC4)nn23)cc1 [MMV1581551] |  | 93.2 | 85.9 | 74.8 |  |  |  |  |  |  |  |  |  | activity at 25 µM [17]: 84.6%; activity at 100 µM [18]: 37%; activity at 100 µM [19]: 10.9%; activity at 100 µM [20]: 52.3%; activity at 100 µM [21]: 47.9%
11 | O=C(Nc1ccccc1)N(Cc1cc(Br)ccc1O)c1ccc(F)cc1 [MMV1581552] |  |  |  |  |  | 51.3 | 32.5 | 58.2 | 63.3 | 11.5 | 1.56 | 8.53 | 24.3 | 
